# Experimental data: patent US20070193894A1, “Container for constituting a formulation in liquid form” (IDD-EAL MANUFACTURING COMPANY LIMITED, priority 2004, published 2007)
# How the values were obtained:
# [1] = Acetaminophen formulation blends tested in different volumes of water and containers; assay type: physicochemical; details: conclusion of Example 13
# Description: Blends of the above components were tested in three different volumes df water: 20 ml, 40 ml and 80 ml in different containers.
# In the case of the second formulation a single volume (20 ml) in two different containers were investigated, namely a small bottle and a sampling container with cap.
# [2] = Ibuprofen formulation test: behaviour in water; assay type: physicochemical; details: conclusion of Example 14
# Description: Two volumes of water were tested, namely 20 ml and 40 ml in two different containers, namely a small bottle and a beaker. One volume of water was tested, namely 20 ml, and a single container, namely a small bottle. In the case of the above two formulations, the behaviour of ibuprofen in water was tested and the generation of bubbles was optimised by increasing the quantity of citric acid, sodium bicarbonate and potassium hydrogen carbonate.
remaining in suspension in water [1],stability in water [1],remaining in suspension in water [2],stability in water [2],SMILES
does not remain in suspension,not stable in water,–,–,"CC(=O)Nc1ccc(O)cc1 [acetaminophen, Acetaminophen]"
–,–,does not remain in suspension,not stable in water,"CC(C)Cc1ccc(C(C)C(=O)O)cc1 (stereo not drawn) [ibuprofen, 4-Isobutyl-Alpha-Methylphenylacetic Acid (Ibuprofen)]"
